From ChEMBL document CHEMBL1131309, “Isoindol-1-one analogues of 4-(2'-methoxyphenyl)-1-[2'-[N-(2"-pyridyl)-p-iodobenzamido]ethyl]pipera zine (p-MPPI) as 5-HT1A receptor ligands” (J Med Chem, 1998)

Biological target: T1, 5-hydroxytryptamine receptor 1A (Rattus norvegicus, UniProt P19327)
T1 sequence (P19327 whole entry): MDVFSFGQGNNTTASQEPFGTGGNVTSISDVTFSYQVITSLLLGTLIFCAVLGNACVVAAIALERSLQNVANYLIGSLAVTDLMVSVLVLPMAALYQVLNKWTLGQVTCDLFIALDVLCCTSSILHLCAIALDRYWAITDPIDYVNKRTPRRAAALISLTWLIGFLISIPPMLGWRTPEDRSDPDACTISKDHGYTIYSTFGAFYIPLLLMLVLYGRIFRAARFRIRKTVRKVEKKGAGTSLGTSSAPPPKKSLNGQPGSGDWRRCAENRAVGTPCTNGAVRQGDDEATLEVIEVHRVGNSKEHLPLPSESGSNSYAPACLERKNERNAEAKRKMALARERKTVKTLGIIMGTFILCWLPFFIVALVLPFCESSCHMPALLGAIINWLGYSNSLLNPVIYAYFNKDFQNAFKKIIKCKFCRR
Description: In vitro binding affinity for 5-hydroxytryptamine 1A receptor in rat hippocampal membranes by [125I]-labeled agonist displacement.

COc1ccccc1N1CCN(CCN(C(=O)c2ccc(I)cc2)c2ccccn2)CC1
Ki: 200 pM

COc1ccccc1N1CCN(CCN2C(=O)c3cc(I)ccc3C2(O)c2ccccc2)CC1 (stereo unspecified)
Ki: 650 pM

COc1ccccc1N1CCN(CCN2C(=O)c3ccccc3C2c2ccccn2)CC1 (stereo unspecified)
Ki: 6500 pM

COc1ccccc1N1CCN(CCN2C(=O)CCC2c2ccc(Br)cc2)CC1 (stereo unspecified)
Ki: 1090 pM

COc1ccccc1N1CCN(CCN2C(=O)c3ccccc3C2c2ccccc2)CC1 (stereo unspecified)
Ki: 500 pM

COc1ccccc1N1CCN(CCN2C(=O)c3cc(N)ccc3C2(O)c2ccccc2)CC1 (stereo unspecified)
Ki: 1850 pM
